Measured values reported in patent US9580604B2, “Pentafluorosulfanyl phthalocyanine derivatives and intermediates thereof” (UBE INDUSTRIES, LTD., priority 2012, dated 2017).

Legend:
[1] = UV/Vis spectra in methylene chloride; type: physicochemical; settings: for coagulation inhibitory effect / suppression of coagulation: in solution, judged from UV/Vis spectrum; for coagulation inhibitory effect / suppression of coagulation / shift of the peak in the Q band: in words; for λ/nm, absorption peak, 1st peak / λ/nm, absorption peak, 2nd peak / λ/nm, absorption peak, 3rd peak / λ/nm, absorption peak, 4th peak / λ/nm, absorption peak, 5th peak / shift of the peak in the Q band: methylene chloride
Source text: FIGS. 1 to 4 show the UV/Vis spectra of the inventive phthalocyanine derivatives obtained above in Examples 8 to 11 in methylene chloride.

[2] = fluorescence spectra in methylene chloride; type: physicochemical; settings: for fluorescence quantum yield, tendency in words: methylene chloride
Source text: FIGS. 6 to 9 show the fluorescence spectra of the inventive phthalocyanine derivatives obtained above in Examples 8 to 11 in methylene chloride.

[3] = solubility in an organic solvent (purification by column chromatography); settings: result in words
[4] = 1.0 × 10^−4 M + Py, broken line
[5] = 1.0 × 10^−4 M, solid line (no pyridine)
[6] = CH2C12, solid line (no pyridine)
[7] = CH2C12—Py, broken line (in the presence of pyridine)

| Substance | coagulation inhibitory effect / suppression of coagulation [1] | λ/nm, absorption peak, 1st peak [1, 4] [nm] | λ/nm, absorption peak, 2nd peak [1, 4] [nm] | λ/nm, absorption peak, 3rd peak [1, 4] [nm] | λ/nm, absorption peak, 4th peak [1, 4] [nm] | λ/nm, absorption peak, 5th peak [1, 4] [nm] | λ/nm, absorption peak, 1st peak [1, 5] [nm] | λ/nm, absorption peak, 2nd peak [1, 5] [nm] | λ/nm, absorption peak, 3rd peak [1, 5] [nm] | λ/nm, absorption peak, 4th peak [1, 5] [nm] | λ/nm, absorption peak, 5th peak [1, 5] [nm] | Φf fluorescence quantum yield [2, 6] | λem (nm) [2, 6] [nm] | λem (nm) ([2]; CH2C12—Py, broken line) | Φf fluorescence quantum yield [2, 7] | shift of the peak in the Q band [1] | fluorescence quantum yield, tendency in words [2] | solubility in an organic solvent [3] |
| --- | --- | --- | --- | --- | --- | --- | --- | --- | --- | --- | --- | --- | --- | --- | --- | --- | --- | --- |
| tetrakis(pentafluorosulfanyl)zinc phthalocyanine [Example 8] | superior coagulation inhibitory effect | 333 | 363 | 607 | 639 | 671 | 334 | 365 | 607 | 637 | 672 | 0.55 | 676 | 676 | 0.74 | – | – | – |
| α-tetrakis(thiophenoxy)-β-tetrakis(pentafluorosulfanyl)zinc phthalocyanine [Example 11] | – | 334 | – | 406 | 641 | 713 | 333 | – | 407 | 641 | 712 | 0.24 | 721 | 723 | 0.34 | significant redshift | decrease in fluorescence quantum yield | – |
| α-tetrakis(trifluoromethyl)-β-tetrakis(pentafluorosulfanyl)zinc phthalocyanine [Example 9] | superior in solubility and suppression of coagulation to the phthalocyanine obtained in Example 8 | 332 | 380 | 597 | 628 | 659 | 330 | 380 | 598 | 629 | 662 | 0.52 | 669 | 667 | 0.84 | – | – | – |
| α-tetrakis(phenoxy)-β-tetrakis(pentafluorosulfanyl)zinc phthalocyanine [Example 10] | – | 328 | 384 | 624 | 694 | – | 326 | 384 | 624 | 694 | 733 | 0.26 | 738 | 704 | 0.34 | significant redshift | decrease in fluorescence quantum yield | – |
| trifluoromethyl phthalocyanine [CF3Pc, reference compound] | – | 334 | 371 | 604 | 628 | 669 | 334 | – | – | 626 | 668 | 0.58 | 675 | 674 | 0.76 | – | – | too poorly soluble in an organic solvent to be purified by column chromatography |
